Measurements: patent publication US7156906B2, “Impregnating agent” (Yara International ASA, priority 2001, dated 2007)

Legend:
Coniophora puteana [1] = assay: growth of the fungi Coniophora puteana at varying concentrations; format: cell-based; conditions: FIG. 1
Text: (§1) Coniophora puteana and […] stillatus, the former is a standard organism in such tests prescribed for use in the European Standard Test EN 113.

Coniophora puteana [2] = assay: wood block test, % reduction of dry matter after exposure to fungi (EN 113); conditions: 3 months
Description: Coniophora puteana and […] stillatus, the former is a standard organism in such tests prescribed for use in the European Standard Test EN 113. The tests were carried out in the following way: Small blocks of wood of the prescribed size 5 cm×2.5 cm×1.5 cm were numbered and then dried in an oven at 105° C. for 24 hours, cooled and weighed. That represented the dry weight at start. […] The blocks were impregnated with said solution and control blocks with sterile distilled water under vacuum for 10 minutes and then left in the impregnating solution for 1 hour, whereupon they were completely soaked with the impregnating solution. Subsequent to this impregnation the blocks were placed on filter paper for 30 minutes for drainage. The test blocks were then washed three times with distilled water for 2 minutes and then left in distilled water for 24 hours and finally washed three times with distilled water and then placed on filter paper for drainage. Four blocks were used for each concentration of impregnating solution with 2 blocks in each test flask, so-called Kolle flasks. The duration of the tests was 3 months. The blocks were then removed from the flasks and scraped clean of fungi, whereupon they were dried at 105° C. for 24 hours and weighed and percent reduction in dry weight was calculated.

Dacrymyces stillatus = assay: growth of the fungi Dacrymyces stillatus at varying concentrations; format: cell-based; conditions: FIG. 2
Text: as §1

O=CO.O=C[O-].[K+] [K-diformate, potassium diformate] was tested, and the “concentration at which it acts as an effective fungicide (growth)” value (Coniophora puteana [1]) was “at least 0.13 weight %”, the “concentration necessary to obtain required effect on reduction of dry matter” value (Coniophora puteana [2]; with subsequent washing of test blocks, FIG. 4) was 4.8% and the “concentration giving complete effect on reduction of dry matter” value (Coniophora puteana [2]; without subsequent washing of test blocks, FIGS. 3 and 7) was 1.3–2%. The “concentration necessary to achieve complete retardation in growth” value (Dacrymyces stillatus) was “at least 0.18 weight %”.
